# Legend:
# [1] = target: TNIK (Homo sapiens (Human), UniProt Q9UKE5); assay: Carna kinome panel; assay type: biochemical; settings: read-out: % Inhibition at 10 μM of the test compound
# [2] = target: BRK (Homo sapiens (Human), UniProt Q13882); assay: Carna kinome panel; assay type: biochemical; settings: read-out: % Inhibition at 10 μM of the test compound
# [3] = target: PHKG2 (Homo sapiens (Human), UniProt P15735); assay: Carna kinome panel; assay type: biochemical; settings: read-out: % Inhibition at 10 μM of the test compound
# [4] = target: RET(S891A) (Homo sapiens (Human), UniProt P07949, S891A); assay: Carna kinome panel; assay type: biochemical; settings: read-out: % Inhibition at 10 μM of the test compound
# [5] = target: PRKX (Homo sapiens (Human), UniProt P51817); assay: Carna kinome panel; assay type: biochemical; settings: read-out: % Inhibition at 10 μM of the test compound
# [6] = target: p70S6Kβ (Homo sapiens (Human), UniProt Q9UBS0); assay: Carna kinome panel; assay type: biochemical; settings: read-out: % Inhibition at 10 μM of the test compound
# [7] = target: CLK2 (Homo sapiens (Human), UniProt P49760); assay: Carna kinome panel; assay type: biochemical; settings: read-out: % Inhibition at 10 μM of the test compound
# Chain of CLK2 (P49760 whole entry, species assumed): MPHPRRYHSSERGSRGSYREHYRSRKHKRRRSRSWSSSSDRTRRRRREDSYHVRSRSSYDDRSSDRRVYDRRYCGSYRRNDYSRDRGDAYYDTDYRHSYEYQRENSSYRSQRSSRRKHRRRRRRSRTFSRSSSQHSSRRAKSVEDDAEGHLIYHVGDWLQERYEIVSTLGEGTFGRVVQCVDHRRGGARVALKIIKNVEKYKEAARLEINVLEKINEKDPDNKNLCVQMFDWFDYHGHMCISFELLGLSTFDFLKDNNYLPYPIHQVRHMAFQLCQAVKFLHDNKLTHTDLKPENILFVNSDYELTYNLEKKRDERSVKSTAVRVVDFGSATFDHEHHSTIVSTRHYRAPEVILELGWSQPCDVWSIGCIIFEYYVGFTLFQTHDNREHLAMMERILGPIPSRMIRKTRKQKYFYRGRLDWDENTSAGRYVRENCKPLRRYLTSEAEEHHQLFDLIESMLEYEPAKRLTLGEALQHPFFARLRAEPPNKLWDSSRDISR
# [8] = target: GSK3α (Homo sapiens (Human), UniProt P49840); assay: biochemical
# Chain of GSK3α (P49840 whole entry): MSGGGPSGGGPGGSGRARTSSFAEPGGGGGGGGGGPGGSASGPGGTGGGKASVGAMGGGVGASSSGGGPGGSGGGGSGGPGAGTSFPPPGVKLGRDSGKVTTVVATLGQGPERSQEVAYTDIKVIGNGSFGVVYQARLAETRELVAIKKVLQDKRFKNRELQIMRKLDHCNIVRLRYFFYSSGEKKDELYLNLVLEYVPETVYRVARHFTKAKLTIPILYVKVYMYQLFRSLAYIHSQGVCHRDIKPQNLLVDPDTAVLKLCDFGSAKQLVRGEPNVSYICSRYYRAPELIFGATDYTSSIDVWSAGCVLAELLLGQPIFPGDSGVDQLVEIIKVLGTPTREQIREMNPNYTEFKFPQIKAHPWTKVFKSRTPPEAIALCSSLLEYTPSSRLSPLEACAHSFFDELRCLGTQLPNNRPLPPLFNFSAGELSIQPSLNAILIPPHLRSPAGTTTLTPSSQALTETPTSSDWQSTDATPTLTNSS
# Description: (§1) A selection of compounds was screened against a selected panel of kinases based on single point inhibitory ability to determine absolute inhibitory activity, leading to selectivity measurements. The assay utilized was identical to that of the single point inhibitory activity determination (MSA) but run in dose response. A solution of 4× inhibitor (5 μL), 4× substrate/ATP Metal solution (5 μL), and 2× Kinase solution (10 μL) was prepared with assay buffer (20 mM HEPES, 0.01% Triton X-100, 2 mM DTT, pH 7.5) and mixed/incubated in 384 well plates for 1 or 5 hours depending on the kinase, at room temperature. A solution of termination buffer (QuickScout Screening assist MSA; Carna Biosciences) (60 μL) was added to each well. The entire reaction mixture was then applied to a LabChip3000 system (Caliper Life Science) and the product and substrate peptide peaks were separated and quantified.
# (§2) Briefly, a selection of compounds was screened against a panel of kinases at a single concentration of 10 μM. […] The entire reaction mixture was then applied to a LabChip3000 system (Caliper Life Science), and the product and substrate peptide peaks were separated and quantified. […] The entire reaction mixture was then applied to a LabChip3000 system (Caliper Life Science), and the product and substrate peptide peaks were separated and quantified.
# [9] = target: EGFR(L858R) (Homo sapiens (Human), UniProt P00533, L858R); assay: Carna kinome panel; assay type: biochemical; settings: read-out: % Inhibition at 10 μM of the test compound
# Chain of EGFR(L858R) (P00533 25-1210 L858R): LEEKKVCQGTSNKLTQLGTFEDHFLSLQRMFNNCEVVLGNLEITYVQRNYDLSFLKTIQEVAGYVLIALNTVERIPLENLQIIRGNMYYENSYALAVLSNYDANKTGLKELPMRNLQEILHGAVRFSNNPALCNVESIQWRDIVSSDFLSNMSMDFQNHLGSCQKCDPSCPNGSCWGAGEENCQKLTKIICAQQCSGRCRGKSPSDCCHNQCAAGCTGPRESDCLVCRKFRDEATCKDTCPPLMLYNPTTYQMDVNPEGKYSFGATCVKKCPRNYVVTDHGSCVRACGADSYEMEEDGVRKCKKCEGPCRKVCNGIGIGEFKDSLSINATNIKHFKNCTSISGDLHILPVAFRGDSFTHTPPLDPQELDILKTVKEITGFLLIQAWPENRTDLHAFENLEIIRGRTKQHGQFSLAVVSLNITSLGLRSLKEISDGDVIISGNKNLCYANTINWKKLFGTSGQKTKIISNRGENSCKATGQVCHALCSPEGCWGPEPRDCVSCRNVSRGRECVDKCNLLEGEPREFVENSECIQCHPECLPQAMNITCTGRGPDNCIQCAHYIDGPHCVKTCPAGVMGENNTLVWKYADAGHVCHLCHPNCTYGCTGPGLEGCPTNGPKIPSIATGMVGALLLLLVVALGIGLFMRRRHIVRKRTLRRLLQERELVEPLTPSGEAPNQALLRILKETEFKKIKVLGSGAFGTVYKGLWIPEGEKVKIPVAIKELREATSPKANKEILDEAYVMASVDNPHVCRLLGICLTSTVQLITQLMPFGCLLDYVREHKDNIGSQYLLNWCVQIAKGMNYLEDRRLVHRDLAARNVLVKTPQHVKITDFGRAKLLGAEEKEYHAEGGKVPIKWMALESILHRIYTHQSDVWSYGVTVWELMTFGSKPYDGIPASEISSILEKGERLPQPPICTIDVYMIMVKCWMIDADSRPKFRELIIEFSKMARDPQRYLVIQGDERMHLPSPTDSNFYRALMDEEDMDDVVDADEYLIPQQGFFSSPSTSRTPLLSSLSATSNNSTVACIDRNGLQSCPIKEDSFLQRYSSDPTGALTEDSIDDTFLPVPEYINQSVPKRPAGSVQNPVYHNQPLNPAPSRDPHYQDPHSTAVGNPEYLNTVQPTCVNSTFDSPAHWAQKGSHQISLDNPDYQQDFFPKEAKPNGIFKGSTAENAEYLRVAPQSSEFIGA
# [10] = target: MAP3K4_Cascade (Homo sapiens (Human), UniProt Q9Y6R4); assay: Carna kinome panel; assay type: biochemical; settings: read-out: % Inhibition at 10 μM of the test compound
# [11] = target: PASK (Homo sapiens (Human), UniProt Q96RG2); assay: Carna kinome panel; assay type: biochemical; settings: read-out: % Inhibition at 10 μM of the test compound
# [12] = target: EGFR(d746-750) (Homo sapiens (Human), UniProt P00533, DEL746-750); assay: Carna kinome panel; assay type: biochemical; settings: read-out: % Inhibition at 10 μM of the test compound
# [13] = target: CRIK (Homo sapiens (Human), UniProt O14578); assay: Carna kinome panel; assay type: biochemical; settings: read-out: % Inhibition at 10 μM of the test compound
# [14] = target: PLK2 (Homo sapiens (Human), UniProt Q9NYY3); assay: Carna kinome panel; assay type: biochemical; settings: read-out: % Inhibition at 10 μM of the test compound
# [15] = target: JNK3 (Homo sapiens (Human), UniProt P53779); assay: Carna kinome panel; assay type: biochemical; settings: read-out: % Inhibition at 10 μM of the test compound
# [16] = target: FES (Homo sapiens (Human), UniProt P07332); assay: Carna kinome panel; assay type: biochemical; settings: read-out: % Inhibition at 10 μM of the test compound
# [17] = target: Erk5 (Homo sapiens (Human), UniProt Q13164); assay: Carna kinome panel; assay type: biochemical; settings: read-out: % Inhibition at 10 μM of the test compound
# [18] = target: FMS (Homo sapiens (Human), UniProt P07333); assay: Carna kinome panel; assay type: biochemical; settings: read-out: % Inhibition at 10 μM of the test compound
# [19] = target: RET(G691S) (Homo sapiens (Human), UniProt P07949, G691S); assay: Carna kinome panel; assay type: biochemical; settings: read-out: % Inhibition at 10 μM of the test compound
# [20] = target: TAK1-TAB1_Cascade (Homo sapiens (Human), UniProt O43318); assay: Carna kinome panel; assay type: biochemical; settings: read-out: % Inhibition at 10 μM of the test compound
# [21] = target: MAP3K2_Cascade (Homo sapiens (Human), UniProt Q9Y2U5); assay: Carna kinome panel; assay type: biochemical; settings: read-out: % Inhibition at 10 μM of the test compound
# Chain of MAP3K2_Cascade (Q9Y2U5 whole entry): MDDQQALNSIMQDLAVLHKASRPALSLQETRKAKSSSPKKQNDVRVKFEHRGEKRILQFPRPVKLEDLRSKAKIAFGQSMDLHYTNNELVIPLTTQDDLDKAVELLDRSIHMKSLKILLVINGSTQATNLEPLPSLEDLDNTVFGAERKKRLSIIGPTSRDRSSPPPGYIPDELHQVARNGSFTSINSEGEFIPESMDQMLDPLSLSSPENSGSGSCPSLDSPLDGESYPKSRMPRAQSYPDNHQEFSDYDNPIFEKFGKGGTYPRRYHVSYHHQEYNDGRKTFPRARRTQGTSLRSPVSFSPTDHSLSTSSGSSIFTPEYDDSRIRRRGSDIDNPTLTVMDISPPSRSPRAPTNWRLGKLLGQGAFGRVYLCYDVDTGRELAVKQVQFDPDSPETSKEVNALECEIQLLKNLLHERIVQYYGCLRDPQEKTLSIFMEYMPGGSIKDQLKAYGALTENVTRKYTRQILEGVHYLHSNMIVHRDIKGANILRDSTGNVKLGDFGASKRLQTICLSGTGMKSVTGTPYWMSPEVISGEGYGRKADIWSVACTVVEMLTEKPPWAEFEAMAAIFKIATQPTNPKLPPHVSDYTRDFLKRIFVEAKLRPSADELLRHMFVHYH
# [22] = target: JNK2 (Homo sapiens (Human), UniProt P45984); assay: Carna kinome panel; assay type: biochemical; settings: read-out: % Inhibition at 10 μM of the test compound
# [23] = target: PDHK4 (Homo sapiens (Human), UniProt Q16654); assay: Carna kinome panel; assay type: biochemical; settings: read-out: % Inhibition at 10 μM of the test compound
# [24] = target: FGFR4(V550E) (Homo sapiens (Human), UniProt P22455, V550E); assay: Carna kinome panel; assay type: biochemical; settings: read-out: % Inhibition at 10 μM of the test compound
# [25] = target: RSK4 (Homo sapiens (Human), UniProt Q9UK32); assay: Carna kinome panel; assay type: biochemical; settings: read-out: % Inhibition at 10 μM of the test compound
# Chain of RSK4 (Q9UK32 whole entry): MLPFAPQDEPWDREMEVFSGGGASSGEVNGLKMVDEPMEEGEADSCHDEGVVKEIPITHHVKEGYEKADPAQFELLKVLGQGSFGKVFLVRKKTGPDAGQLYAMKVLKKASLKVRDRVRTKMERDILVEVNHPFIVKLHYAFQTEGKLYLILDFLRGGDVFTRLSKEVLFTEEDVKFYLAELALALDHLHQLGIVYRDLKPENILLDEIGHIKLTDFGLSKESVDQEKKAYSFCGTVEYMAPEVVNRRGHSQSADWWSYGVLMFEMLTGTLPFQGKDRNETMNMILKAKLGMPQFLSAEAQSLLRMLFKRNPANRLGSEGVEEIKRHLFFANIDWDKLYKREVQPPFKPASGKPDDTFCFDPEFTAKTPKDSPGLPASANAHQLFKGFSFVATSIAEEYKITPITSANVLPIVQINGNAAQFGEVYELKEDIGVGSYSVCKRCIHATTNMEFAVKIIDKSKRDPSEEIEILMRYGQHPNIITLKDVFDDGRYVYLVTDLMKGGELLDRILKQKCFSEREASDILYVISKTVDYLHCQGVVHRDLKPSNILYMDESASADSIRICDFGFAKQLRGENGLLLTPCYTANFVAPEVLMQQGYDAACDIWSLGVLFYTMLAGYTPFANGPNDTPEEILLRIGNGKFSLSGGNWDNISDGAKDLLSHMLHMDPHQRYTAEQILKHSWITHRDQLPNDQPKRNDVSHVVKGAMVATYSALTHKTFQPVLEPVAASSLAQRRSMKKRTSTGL
# [26] = target: ALK(C1156Y) (Homo sapiens (Human), UniProt Q9UM73, C1156Y); assay: Carna kinome panel; assay type: biochemical; settings: read-out: % Inhibition at 10 μM of the test compound
# [27] = target: EPHB4 (Homo sapiens (Human), UniProt P54760); assay: Carna kinome panel; assay type: biochemical; settings: read-out: % Inhibition at 10 μM of the test compound
# [28] = target: EPHA4 (Homo sapiens (Human), UniProt P54764); assay: Carna kinome panel; assay type: biochemical; settings: read-out: % Inhibition at 10 μM of the test compound
# Chain of EPHA4 (P54764 20-986): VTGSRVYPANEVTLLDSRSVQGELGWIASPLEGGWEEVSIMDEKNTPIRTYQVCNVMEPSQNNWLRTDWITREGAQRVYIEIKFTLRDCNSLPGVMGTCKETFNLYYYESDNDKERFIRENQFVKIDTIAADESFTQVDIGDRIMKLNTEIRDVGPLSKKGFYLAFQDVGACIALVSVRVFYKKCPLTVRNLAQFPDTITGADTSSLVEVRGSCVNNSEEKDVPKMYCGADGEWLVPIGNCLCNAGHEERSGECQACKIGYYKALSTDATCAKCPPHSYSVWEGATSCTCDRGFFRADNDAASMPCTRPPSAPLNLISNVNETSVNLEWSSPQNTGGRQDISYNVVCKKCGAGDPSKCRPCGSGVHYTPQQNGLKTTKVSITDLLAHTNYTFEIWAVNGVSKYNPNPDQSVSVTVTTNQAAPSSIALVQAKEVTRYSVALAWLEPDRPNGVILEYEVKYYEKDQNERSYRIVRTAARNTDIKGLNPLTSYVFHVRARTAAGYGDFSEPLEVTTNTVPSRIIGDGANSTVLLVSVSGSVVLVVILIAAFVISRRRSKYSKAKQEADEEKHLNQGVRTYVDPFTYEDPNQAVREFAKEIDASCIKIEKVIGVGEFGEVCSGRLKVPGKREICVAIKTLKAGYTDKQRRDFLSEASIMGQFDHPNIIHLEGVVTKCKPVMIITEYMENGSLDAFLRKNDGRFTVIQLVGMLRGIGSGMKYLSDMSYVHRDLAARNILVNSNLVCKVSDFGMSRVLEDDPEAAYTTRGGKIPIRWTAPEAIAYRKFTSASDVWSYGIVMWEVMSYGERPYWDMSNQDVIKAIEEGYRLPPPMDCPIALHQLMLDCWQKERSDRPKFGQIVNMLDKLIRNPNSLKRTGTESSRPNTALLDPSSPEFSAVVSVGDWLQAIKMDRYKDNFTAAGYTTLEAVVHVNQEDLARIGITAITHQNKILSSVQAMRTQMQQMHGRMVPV
# [29] = target: PKCβ2 (Homo sapiens (Human), UniProt P05771); assay: Carna kinome panel; assay type: biochemical; settings: read-out: % Inhibition at 10 μM of the test compound
# [30] = target: AurC (Homo sapiens (Human), UniProt Q9UQB9); assay: Carna kinome panel; assay type: biochemical; settings: read-out: % Inhibition at 10 μM of the test compound
# [31] = target: SRPK1 (Homo sapiens (Human), UniProt Q96SB4); assay: Carna kinome panel; assay type: biochemical; settings: read-out: % Inhibition at 10 μM of the test compound
# [32] = target: MARK3 (Homo sapiens (Human), UniProt P27448); assay: Carna kinome panel; assay type: biochemical; settings: read-out: % Inhibition at 10 μM of the test compound
# [33] = target: CGK2 (Homo sapiens (Human), UniProt Q13237); assay: Carna kinome panel; assay type: biochemical; settings: read-out: % Inhibition at 10 μM of the test compound
# [34] = target: MAP2K3_Cascade (Homo sapiens (Human), UniProt P46734); assay: Carna kinome panel; assay type: biochemical; settings: read-out: % Inhibition at 10 μM of the test compound
# [35] = target: TIE2 (Homo sapiens (Human), UniProt Q02763); assay: Carna kinome panel; assay type: biochemical; settings: read-out: % Inhibition at 10 μM of the test compound
# [36] = target: GSK3β (Homo sapiens (Human), UniProt P49841); assay: Carna kinome panel; assay type: biochemical
# Chain of GSK3β (P49841 whole entry): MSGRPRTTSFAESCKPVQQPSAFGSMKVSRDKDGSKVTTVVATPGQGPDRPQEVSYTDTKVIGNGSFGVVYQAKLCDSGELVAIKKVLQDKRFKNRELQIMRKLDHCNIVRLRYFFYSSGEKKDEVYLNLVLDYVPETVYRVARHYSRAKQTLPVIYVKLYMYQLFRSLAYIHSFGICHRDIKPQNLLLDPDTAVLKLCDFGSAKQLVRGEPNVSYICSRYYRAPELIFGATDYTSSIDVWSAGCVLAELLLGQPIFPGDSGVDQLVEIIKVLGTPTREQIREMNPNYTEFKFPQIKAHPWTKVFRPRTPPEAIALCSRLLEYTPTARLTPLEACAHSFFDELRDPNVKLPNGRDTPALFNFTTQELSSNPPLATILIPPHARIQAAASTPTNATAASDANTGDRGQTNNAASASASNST
# Description: as §1, §2
# [37] = target: CLK1 (Homo sapiens (Human), UniProt P49759); assay: Carna kinome panel; assay type: biochemical; settings: read-out: % Inhibition at 10 μM of the test compound
# [38] = target: IRAK4 (Homo sapiens (Human), UniProt Q9NWZ3); assay: Carna kinome panel; assay type: biochemical; settings: read-out: % Inhibition at 10 μM of the test compound
# [39] = target: MARK1 (Homo sapiens (Human), UniProt Q9P0L2); assay: Carna kinome panel; assay type: biochemical; settings: read-out: % Inhibition at 10 μM of the test compound
# [40] = read-out: % Inhibition at 10 μM of the test compound
smiles,measurement,setting,value
"CCC1(c2ccccc2)C2=C(CC(C)(C)CC2=O)Nc2ncsc21 (centres unmarked) [Compound 1, 9-Ethyl-6,6-dimethyl-9-phenyl-5,6,7,9-tetrahydrothiazolo[4,5-b]quinolin-8(4H)-one]",inhibition at 10 µM,[1],8.6%
same,inhibition at 10 µM,[2],0.3%
same,inhibition at 10 µM,[3],-5%
same,inhibition at 10 µM,[4],1.4%
same,inhibition at 10 µM,[5],4.2%
same,inhibition at 10 µM,[6],0.5%
same,inhibition at 10 µM,[7],0.9%
same,IC50,[8],31.3 nM
same,inhibition at 10 µM,[8]; [40],98%
same,inhibition at 10 µM,[9],22.2%
same,inhibition at 10 µM,[10],10.1%
same,inhibition at 10 µM,[11],-5.2%
same,inhibition at 10 µM,[12],-6.1%
same,inhibition at 10 µM,[13],1.6%
same,inhibition at 10 µM,[14],1.7%
same,inhibition at 10 µM,[15],3.1%
same,inhibition at 10 µM,[16],-6.2%
same,inhibition at 10 µM,[17],-0.6%
same,inhibition at 10 µM,[18],0.3%
same,inhibition at 10 µM,[19],2.8%
same,inhibition at 10 µM,[20],8%
same,inhibition at 10 µM,[21],3.4%
same,inhibition at 10 µM,[22],-1.5%
same,inhibition at 10 µM,[23],8.3%
same,inhibition at 10 µM,[24],4%
same,inhibition at 10 µM,[25],-4.6%
same,inhibition at 10 µM,[26],-3.7%
same,inhibition at 10 µM,[27],5.3%
same,inhibition at 10 µM,[28],0%
same,inhibition at 10 µM,[29],-10.7%
same,inhibition at 10 µM,[30],8.5%
same,inhibition at 10 µM,[31],-0.3%
same,inhibition at 10 µM,[32],-3.3%
same,inhibition at 10 µM,[33],-1.6%
same,inhibition at 10 µM,[34],2.9%
same,inhibition at 10 µM,[35],11.1%
same,IC50,[36]; GSK3β,137 nM
same,inhibition at 10 µM,[36]; [40],97.7%
same,inhibition at 10 µM,[37],-7.2%
same,inhibition at 10 µM,[38],-1.2%
same,inhibition at 10 µM,[39],-1.7%
